{"source": "ChEMBL document CHEMBL1153138", "about": "“2,4-Diaminopyrimidine MK2 inhibitors. Part II: Structure-based inhibitor optimization” (Bioorg Med Chem Lett, 2010)", "design_in_all_cases": "dose 3 mg/kg, route intravenous", "conditions_in_all_cases": "in vivo", "key": {"[1]": {"test_system": "Rattus norvegicus", "assay": "Half life in Sprague-Dawley rat at 3 mg/kg, iv", "type": "ADME, organism-based"}, "[2]": {"test_system": "Rattus norvegicus", "assay": "AUC in Sprague-Dawley rat at 3 mg/kg, iv", "type": "ADME, organism-based, Plasma"}, "[3]": {"test_system": "Rattus norvegicus", "assay": "Clearance in Sprague-Dawley rat at 3 mg/kg, iv", "type": "ADME, organism-based"}, "[4]": {"test_system": "Rattus norvegicus", "assay": "Terminal Phase volume of distribution at steady state in Sprague-Dawley rat at 3 mg/kg, iv", "type": "ADME, organism-based"}}}
{"smiles": "NCCCn1cc(-c2cc(-c3cc4ccccc4s3)c3[nH]ncc3c2)c2nc(N)ncc21", "values": [{"measurement": "t1/2", "setting": "[1]", "value": 5.5, "unit": "h"}, {"measurement": "AUC", "setting": "[2]", "value": 4200, "unit": "ng·h/mL"}, {"measurement": "CL", "setting": "[3]", "value": 28.3, "unit": "mL/min/kg"}, {"measurement": "Vbeta", "setting": "[4]", "value": 4, "unit": "L/kg"}]}
